Source: paper PMC12300041, “Tricyclic Isatin Derivatives as Anti-Inflammatory Compounds with High Kinase Binding Affinity” (Molecules, 2025)

Key:
Assay in all cases: KINOMEscan
Format in all cases: binding
TRPM6 = target: T1, TRPM6 (Homo sapiens, UniProt Q9BX84)
T1 construct: purchased Eurofins DiscoverX KINOMEscan
Procedure, shortened: (§1)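 Compound and kinase were incubated at room temperature for 1 h, the free kinase fraction was captured with an immobilized affinity ligand, and capture was quantified by quantitative PCR; Kd values used a 12-point half-log series up to 33 μM.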

YANK2 = target: T2, YANK2 (Homo sapiens, UniProt Q9NY57)
T2 construct: purchased Eurofins DiscoverX KINOMEscan
Procedure, shortened: as §1

CIT = target: T3, CIT (Homo sapiens, UniProt O14578)
T3 construct: purchased Eurofins DiscoverX KINOMEscan
Procedure, shortened: as §1

MLK2 = target: T4, MLK2 (Homo sapiens, UniProt Q02779)
T4 construct: purchased Eurofins DiscoverX KINOMEscan
T4 sequence (Q02779 whole entry): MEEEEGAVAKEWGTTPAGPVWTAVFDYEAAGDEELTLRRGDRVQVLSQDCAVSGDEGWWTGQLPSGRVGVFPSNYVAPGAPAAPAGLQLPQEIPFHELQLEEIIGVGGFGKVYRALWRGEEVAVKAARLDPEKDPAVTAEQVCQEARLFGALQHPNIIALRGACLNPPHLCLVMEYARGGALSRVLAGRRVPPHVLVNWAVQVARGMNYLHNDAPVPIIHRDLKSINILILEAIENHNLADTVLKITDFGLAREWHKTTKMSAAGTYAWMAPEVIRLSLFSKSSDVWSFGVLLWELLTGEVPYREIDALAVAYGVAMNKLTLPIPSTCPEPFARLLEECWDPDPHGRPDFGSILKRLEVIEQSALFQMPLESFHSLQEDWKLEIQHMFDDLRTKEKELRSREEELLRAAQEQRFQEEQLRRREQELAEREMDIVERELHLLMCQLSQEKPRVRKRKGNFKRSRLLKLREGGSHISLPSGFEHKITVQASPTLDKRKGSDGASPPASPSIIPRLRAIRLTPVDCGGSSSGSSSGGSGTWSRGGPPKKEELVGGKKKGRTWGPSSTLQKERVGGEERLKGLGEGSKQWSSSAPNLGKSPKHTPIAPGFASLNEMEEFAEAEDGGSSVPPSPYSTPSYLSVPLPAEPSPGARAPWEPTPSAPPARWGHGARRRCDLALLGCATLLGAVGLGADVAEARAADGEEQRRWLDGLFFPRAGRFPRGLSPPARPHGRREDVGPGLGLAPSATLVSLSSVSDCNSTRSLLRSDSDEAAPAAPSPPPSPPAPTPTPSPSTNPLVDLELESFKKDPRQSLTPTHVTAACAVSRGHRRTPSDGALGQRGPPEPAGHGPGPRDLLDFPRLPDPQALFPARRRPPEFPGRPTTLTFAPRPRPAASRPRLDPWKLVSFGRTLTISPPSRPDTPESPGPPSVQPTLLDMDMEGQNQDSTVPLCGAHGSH
Procedure, shortened: as §1

PDGFRB = target: T5, PDGFRB (Homo sapiens, UniProt P09619)
T5 construct: purchased Eurofins DiscoverX KINOMEscan
Procedure, shortened: as §1

RIPK1 = target: T6, RIPK1 (Homo sapiens, UniProt Q13546)
T6 construct: purchased Eurofins DiscoverX KINOMEscan
Procedure, shortened: as §1

EGFR = target: T7, EGFR (Homo sapiens, UniProt P00533)
T7 construct: purchased Eurofins DiscoverX KINOMEscan
Procedure, shortened: as §1

TLK1 = target: T8, TLK1 (Homo sapiens, UniProt Q9UKI8)
T8 construct: purchased Eurofins DiscoverX KINOMEscan
Procedure, shortened: as §1

CDK3 = target: T9, CDK3 (Homo sapiens, UniProt Q00526)
T9 construct: purchased Eurofins DiscoverX KINOMEscan
Procedure, shortened: as §1

ULK1 = target: T10, ULK1 (Homo sapiens, UniProt O75385)
T10 construct: purchased Eurofins DiscoverX KINOMEscan
T10 sequence (O75385 whole entry): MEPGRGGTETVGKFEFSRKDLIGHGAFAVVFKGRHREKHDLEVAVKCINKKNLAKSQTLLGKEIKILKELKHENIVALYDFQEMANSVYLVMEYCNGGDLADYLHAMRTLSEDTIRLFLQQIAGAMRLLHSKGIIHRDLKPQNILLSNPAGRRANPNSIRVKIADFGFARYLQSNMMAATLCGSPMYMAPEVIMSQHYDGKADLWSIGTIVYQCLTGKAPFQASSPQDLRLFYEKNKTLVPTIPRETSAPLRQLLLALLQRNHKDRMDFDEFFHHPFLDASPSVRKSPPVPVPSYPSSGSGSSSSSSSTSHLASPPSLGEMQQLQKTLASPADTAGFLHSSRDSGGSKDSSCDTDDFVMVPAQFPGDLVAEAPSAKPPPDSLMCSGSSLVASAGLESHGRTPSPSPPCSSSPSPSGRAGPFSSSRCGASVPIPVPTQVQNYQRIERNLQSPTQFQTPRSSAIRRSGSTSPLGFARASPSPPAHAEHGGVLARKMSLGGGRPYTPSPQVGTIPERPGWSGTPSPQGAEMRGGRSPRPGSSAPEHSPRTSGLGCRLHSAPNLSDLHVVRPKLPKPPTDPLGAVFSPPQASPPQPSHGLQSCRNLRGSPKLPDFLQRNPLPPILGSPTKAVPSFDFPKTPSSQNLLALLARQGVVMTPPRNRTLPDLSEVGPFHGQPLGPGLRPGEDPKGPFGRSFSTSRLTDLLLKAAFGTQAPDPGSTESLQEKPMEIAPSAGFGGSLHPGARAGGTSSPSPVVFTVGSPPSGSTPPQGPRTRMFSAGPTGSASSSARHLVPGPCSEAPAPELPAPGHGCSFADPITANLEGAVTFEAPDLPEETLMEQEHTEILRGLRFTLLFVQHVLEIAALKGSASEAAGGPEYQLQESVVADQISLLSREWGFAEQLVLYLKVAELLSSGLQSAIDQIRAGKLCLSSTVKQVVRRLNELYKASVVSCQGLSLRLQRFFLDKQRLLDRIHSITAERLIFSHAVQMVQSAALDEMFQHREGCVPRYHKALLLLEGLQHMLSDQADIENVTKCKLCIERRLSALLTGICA
Procedure, shortened: as §1

HCK = target: T11, HCK (Homo sapiens, UniProt P08631)
T11 construct: purchased Eurofins DiscoverX KINOMEscan
Procedure, shortened: as §1

SRPK1 = target: T12, SRPK1 (Homo sapiens, UniProt Q96SB4)
T12 construct: purchased Eurofins DiscoverX KINOMEscan
Procedure, shortened: as §1

BRSK2 = target: T13, BRSK2 (Homo sapiens, UniProt Q8IWQ3)
T13 construct: purchased Eurofins DiscoverX KINOMEscan
Procedure, shortened: as §1

PIK3CD = target: T14, PIK3CD (Homo sapiens, UniProt O00329)
T14 construct: purchased Eurofins DiscoverX KINOMEscan
Procedure, shortened: as §1

VPS34 = target: T15, VPS34 (Homo sapiens, UniProt Q8NEB9)
T15 construct: purchased Eurofins DiscoverX KINOMEscan
Procedure, shortened: as §1

MRCKB = target: T16, MRCKB (Homo sapiens, UniProt Q9Y5S2)
T16 construct: purchased Eurofins DiscoverX KINOMEscan
Procedure, shortened: as §1

MAP3K19 = target: T17, MAP3K19 (Homo sapiens, UniProt Q56UN5)
T17 construct: purchased Eurofins DiscoverX KINOMEscan
Procedure, shortened: as §1

FER = target: T18, FER (Homo sapiens, UniProt P16591)
T18 construct: purchased Eurofins DiscoverX KINOMEscan
Procedure, shortened: as §1

BRAF = target: T19, BRAF (Homo sapiens, UniProt P15056)
T19 construct: purchased Eurofins DiscoverX KINOMEscan
Procedure, shortened: as §1

LKB1 = target: T20, LKB1 (Homo sapiens, UniProt Q15831)
T20 construct: purchased Eurofins DiscoverX KINOMEscan
Procedure, shortened: as §1

CDK11 = target: T21, CDK11 (Homo sapiens, UniProt Q9BWU1)
T21 construct: purchased Eurofins DiscoverX KINOMEscan
Procedure, shortened: as §1

ERK3 = target: T22, ERK3 (Homo sapiens, UniProt Q16659)
T22 construct: purchased Eurofins DiscoverX KINOMEscan
T22 sequence (Q16659 whole entry): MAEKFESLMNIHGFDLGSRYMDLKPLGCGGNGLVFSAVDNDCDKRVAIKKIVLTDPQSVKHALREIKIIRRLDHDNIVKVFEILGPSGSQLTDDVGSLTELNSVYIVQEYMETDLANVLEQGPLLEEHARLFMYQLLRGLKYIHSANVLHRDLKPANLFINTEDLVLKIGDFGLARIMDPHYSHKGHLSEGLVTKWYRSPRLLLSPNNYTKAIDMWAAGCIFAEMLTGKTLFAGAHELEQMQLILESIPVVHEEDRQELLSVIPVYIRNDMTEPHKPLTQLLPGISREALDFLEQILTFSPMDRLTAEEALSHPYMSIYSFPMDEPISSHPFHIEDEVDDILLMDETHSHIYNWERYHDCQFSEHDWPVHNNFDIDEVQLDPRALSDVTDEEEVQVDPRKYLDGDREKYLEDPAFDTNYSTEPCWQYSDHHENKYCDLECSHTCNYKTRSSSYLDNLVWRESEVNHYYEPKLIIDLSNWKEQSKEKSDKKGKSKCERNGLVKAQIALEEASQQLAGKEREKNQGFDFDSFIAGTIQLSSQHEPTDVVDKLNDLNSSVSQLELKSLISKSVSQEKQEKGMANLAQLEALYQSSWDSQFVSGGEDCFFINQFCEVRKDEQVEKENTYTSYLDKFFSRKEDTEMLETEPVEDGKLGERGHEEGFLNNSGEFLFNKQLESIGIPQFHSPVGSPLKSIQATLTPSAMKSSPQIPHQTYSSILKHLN
Procedure, shortened: as §1

FLT3 (N841I) = target: T23, FLT3 (N841I) (Homo sapiens, UniProt P36888, N841I)
T23 construct: purchased Eurofins DiscoverX KINOMEscan
Procedure, shortened: as §1

SRMS = target: T24, SRMS (Homo sapiens, UniProt Q9H3Y6)
T24 construct: purchased Eurofins DiscoverX KINOMEscan
T24 sequence (Q9H3Y6 whole entry): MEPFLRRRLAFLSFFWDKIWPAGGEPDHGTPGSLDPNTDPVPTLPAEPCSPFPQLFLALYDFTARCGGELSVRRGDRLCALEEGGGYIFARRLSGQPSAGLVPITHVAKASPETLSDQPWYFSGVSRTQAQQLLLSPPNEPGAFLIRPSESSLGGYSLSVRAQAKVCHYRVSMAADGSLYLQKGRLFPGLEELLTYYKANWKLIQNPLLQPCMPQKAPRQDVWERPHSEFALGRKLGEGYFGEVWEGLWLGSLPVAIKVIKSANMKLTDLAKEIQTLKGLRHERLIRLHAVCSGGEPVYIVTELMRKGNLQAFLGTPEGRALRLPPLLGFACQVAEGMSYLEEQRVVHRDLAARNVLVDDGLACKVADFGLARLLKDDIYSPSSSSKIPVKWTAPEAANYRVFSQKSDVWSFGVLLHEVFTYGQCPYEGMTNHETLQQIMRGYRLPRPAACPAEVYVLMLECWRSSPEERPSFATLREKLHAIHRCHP
Procedure, shortened: as §1

KIT (V559D, T670I) = target: T25, KIT (V559D, T670I) (Homo sapiens, UniProt P10721, T670I/V559D)
T25 construct: purchased Eurofins DiscoverX KINOMEscan
Procedure, shortened: as §1

PRP4 = target: T26, PRP4 (Homo sapiens, UniProt Q13523)
T26 construct: purchased Eurofins DiscoverX KINOMEscan
Procedure, shortened: as §1

SNRK = target: T27, SNRK (Homo sapiens, UniProt Q9NRH2)
T27 construct: purchased Eurofins DiscoverX KINOMEscan
Procedure, shortened: as §1

BTK = target: T28, BTK (Homo sapiens, UniProt Q06187)
T28 construct: purchased Eurofins DiscoverX KINOMEscan
Procedure, shortened: as §1

MINK = target: T29, MINK (Homo sapiens, UniProt Q8N4C8)
T29 construct: purchased Eurofins DiscoverX KINOMEscan
Procedure, shortened: as §1

CTK = target: T30, CTK (Homo sapiens, UniProt P42679)
T30 construct: purchased Eurofins DiscoverX KINOMEscan
Procedure, shortened: as §1

[1] = target: T31, RSK1 (Kin. Dom.1-N-term.) (Homo sapiens, UniProt Q15418)
T31 construct: RSK1 (Kin. Dom.1-N-term.); purchased Eurofins DiscoverX KINOMEscan
T31 sequence (Q15418 1-391 limits assumed): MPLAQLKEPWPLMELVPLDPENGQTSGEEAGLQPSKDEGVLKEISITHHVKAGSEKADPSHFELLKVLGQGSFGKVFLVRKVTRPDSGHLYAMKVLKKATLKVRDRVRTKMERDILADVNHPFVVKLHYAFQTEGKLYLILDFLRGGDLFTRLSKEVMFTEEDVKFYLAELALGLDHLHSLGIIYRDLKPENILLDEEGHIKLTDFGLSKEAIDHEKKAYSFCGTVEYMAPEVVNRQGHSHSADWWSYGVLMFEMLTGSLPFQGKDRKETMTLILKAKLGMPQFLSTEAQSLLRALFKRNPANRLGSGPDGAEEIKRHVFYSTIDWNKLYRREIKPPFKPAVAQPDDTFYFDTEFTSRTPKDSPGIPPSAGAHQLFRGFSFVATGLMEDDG
Procedure, shortened: as §1

ZAP70 = target: T32, ZAP70 (Homo sapiens, UniProt P43403)
T32 construct: purchased Eurofins DiscoverX KINOMEscan
Procedure, shortened: as §1

MET (M1250T) = target: T33, MET (M1250T) (Homo sapiens, UniProt P08581, M1250T)
T33 construct: purchased Eurofins DiscoverX KINOMEscan
Procedure, shortened: as §1

ROS1 = target: T34, ROS1 (Homo sapiens, UniProt P08922)
T34 construct: purchased Eurofins DiscoverX KINOMEscan
Procedure, shortened: as §1

ABL1 (F317I)-P = target: T35, ABL1 (F317I)-P (Homo sapiens, UniProt P00519, F317I)
T35 construct: purchased Eurofins DiscoverX KINOMEscan
T35 sequence (P00519 whole entry F317I): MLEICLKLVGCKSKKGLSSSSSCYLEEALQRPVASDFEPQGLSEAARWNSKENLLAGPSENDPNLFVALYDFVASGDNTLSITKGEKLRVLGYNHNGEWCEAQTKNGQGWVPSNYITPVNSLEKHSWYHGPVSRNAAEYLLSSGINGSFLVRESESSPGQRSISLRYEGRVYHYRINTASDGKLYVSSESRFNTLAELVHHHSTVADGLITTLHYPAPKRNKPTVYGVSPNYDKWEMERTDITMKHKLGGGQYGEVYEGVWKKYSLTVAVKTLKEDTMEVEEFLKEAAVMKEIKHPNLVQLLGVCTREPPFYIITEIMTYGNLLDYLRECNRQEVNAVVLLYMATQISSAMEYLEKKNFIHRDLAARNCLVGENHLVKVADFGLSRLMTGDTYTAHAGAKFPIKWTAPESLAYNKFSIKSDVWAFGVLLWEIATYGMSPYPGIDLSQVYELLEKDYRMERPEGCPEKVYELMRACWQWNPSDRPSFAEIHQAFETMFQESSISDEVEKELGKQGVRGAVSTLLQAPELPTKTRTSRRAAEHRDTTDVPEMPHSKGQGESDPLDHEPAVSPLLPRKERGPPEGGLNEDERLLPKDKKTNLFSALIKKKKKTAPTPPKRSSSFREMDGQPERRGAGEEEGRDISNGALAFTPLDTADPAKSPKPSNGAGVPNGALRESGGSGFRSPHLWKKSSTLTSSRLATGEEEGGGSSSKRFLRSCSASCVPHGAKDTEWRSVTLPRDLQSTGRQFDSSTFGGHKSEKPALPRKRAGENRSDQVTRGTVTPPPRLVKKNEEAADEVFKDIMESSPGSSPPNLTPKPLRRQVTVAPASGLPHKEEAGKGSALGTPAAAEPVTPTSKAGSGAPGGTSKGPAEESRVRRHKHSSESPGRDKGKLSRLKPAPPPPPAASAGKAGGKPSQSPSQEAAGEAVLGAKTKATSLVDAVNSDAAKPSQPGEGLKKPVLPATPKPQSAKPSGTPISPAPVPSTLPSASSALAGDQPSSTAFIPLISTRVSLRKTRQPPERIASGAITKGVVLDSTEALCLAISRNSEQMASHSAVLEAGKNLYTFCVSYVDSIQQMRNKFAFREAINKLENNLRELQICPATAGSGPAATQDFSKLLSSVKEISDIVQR
Procedure, shortened: as §1

BMX = target: T36, BMX (Homo sapiens, UniProt P51813)
T36 construct: purchased Eurofins DiscoverX KINOMEscan
Procedure, shortened: as §1

EGFR (S752-I759 del) = target: T37, EGFR (S752-I759 del) (Homo sapiens, UniProt P00533, DEL752-759)
T37 construct: purchased Eurofins DiscoverX KINOMEscan
T37 sequence (P00533 with tags, fused parts or gaps DEL752-759 limits assumed): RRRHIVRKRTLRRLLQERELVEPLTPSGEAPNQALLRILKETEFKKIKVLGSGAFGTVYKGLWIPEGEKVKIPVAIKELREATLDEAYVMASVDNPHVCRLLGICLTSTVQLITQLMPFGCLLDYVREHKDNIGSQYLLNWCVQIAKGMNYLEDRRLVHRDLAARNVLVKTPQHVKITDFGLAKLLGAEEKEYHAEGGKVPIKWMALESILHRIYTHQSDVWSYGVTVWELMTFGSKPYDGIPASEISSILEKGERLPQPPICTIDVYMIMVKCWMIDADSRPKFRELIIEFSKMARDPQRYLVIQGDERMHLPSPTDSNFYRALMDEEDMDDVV
Procedure, shortened: as §1

NEK9 = target: T38, NEK9 (Homo sapiens, UniProt Q8TD19)
T38 construct: purchased Eurofins DiscoverX KINOMEscan
Procedure, shortened: as §1

MAP3K4 = target: T39, MAP3K4 (Homo sapiens, UniProt Q9Y6R4)
T39 construct: purchased Eurofins DiscoverX KINOMEscan
Procedure, shortened: as §1

## O=C1Nc2c(cc([N+](=O)[O-])c3c2CCCC3)C1=NO [Compound 5d, 3-(Hydroxyimino)-5-nitro-1,3,6,7,8,9-hexahydro-2H-benzo[g]indol-2-one]
TRPM6
  inhibition at 10 µM: 8%
YANK2
  inhibition at 10 µM: 0%
CIT
  inhibition at 10 µM: 92.8%
MLK2
  inhibition at 10 µM: 4%
PDGFRB
  inhibition at 10 µM: 0%
RIPK1
  inhibition at 10 µM: 0%
EGFR
  inhibition at 10 µM: 15%
TLK1
  inhibition at 10 µM: 19%
CDK3
  inhibition at 10 µM: 13%
ULK1
  inhibition at 10 µM: 15%
HCK
  inhibition at 10 µM: 20%
SRPK1
  inhibition at 10 µM: 53%
BRSK2
  inhibition at 10 µM: 31%
PIK3CD
  inhibition at 10 µM: 42%
VPS34
  inhibition at 10 µM: 27%
MRCKB
  inhibition at 10 µM: 0%
MAP3K19
  inhibition at 10 µM: 95.8%
FER
  inhibition at 10 µM: 39%
BRAF
  inhibition at 10 µM: 28%
LKB1
  inhibition at 10 µM: 0%
CDK11
  inhibition at 10 µM: 1%
ERK3
  inhibition at 10 µM: 0%
FLT3 (N841I)
  inhibition at 10 µM: 0%
SRMS
  inhibition at 10 µM: 29%
KIT (V559D, T670I)
  inhibition at 10 µM: 55%
PRP4
  inhibition at 10 µM: 38%
SNRK
  inhibition at 10 µM: 22%
BTK
  inhibition at 10 µM: 39%
MINK
  inhibition at 10 µM: 70%
CTK
  inhibition at 10 µM: 0%
[1]
  inhibition at 10 µM: 0%
ZAP70
  inhibition at 10 µM: 2%
MET (M1250T)
  inhibition at 10 µM: 51%
ROS1
  inhibition at 10 µM: 67%
ABL1 (F317I)-P; first of two lines printed ABL1 (F317I)-P
  inhibition at 10 µM: 7%
ABL1 (F317I)-P; second of two lines printed ABL1 (F317I)-P
  inhibition at 10 µM: 0%
BMX
  inhibition at 10 µM: 13%
EGFR (S752-I759 del)
  inhibition at 10 µM: 16%
NEK9
  inhibition at 10 µM: 32%
MAP3K4
  inhibition at 10 µM: 15%
